Measured values from patent US20220356162A1, “Heterocyclic Compounds as Lipoxygenase Inhibitors” (Dr. Reddy's Institute of Life Sciences, priority 2019, published 2022).
Like-named read-outs stand apart in the source and are kept apart here.

What was measured:
[1] = biological target: T1, human 12R-LOX enzyme (Homo sapiens, UniProt O75342); assay: Screening of compounds against 12R-LOX in isolated enzyme systems; type: biochemical; conditions: for inhibition at 100 µM: read-out: % Inhibition (at 100 μM)
T1 construct: Coding region of the cDNA was amplified from the basic vector pCMV6Neo-12R-LOX (OriGene, USA) and was ligated into pET28(b); His-tag (N); made in house; host or cells: E. coli BL21 Rossetta DE3
T1 sequence (O75342 1-701): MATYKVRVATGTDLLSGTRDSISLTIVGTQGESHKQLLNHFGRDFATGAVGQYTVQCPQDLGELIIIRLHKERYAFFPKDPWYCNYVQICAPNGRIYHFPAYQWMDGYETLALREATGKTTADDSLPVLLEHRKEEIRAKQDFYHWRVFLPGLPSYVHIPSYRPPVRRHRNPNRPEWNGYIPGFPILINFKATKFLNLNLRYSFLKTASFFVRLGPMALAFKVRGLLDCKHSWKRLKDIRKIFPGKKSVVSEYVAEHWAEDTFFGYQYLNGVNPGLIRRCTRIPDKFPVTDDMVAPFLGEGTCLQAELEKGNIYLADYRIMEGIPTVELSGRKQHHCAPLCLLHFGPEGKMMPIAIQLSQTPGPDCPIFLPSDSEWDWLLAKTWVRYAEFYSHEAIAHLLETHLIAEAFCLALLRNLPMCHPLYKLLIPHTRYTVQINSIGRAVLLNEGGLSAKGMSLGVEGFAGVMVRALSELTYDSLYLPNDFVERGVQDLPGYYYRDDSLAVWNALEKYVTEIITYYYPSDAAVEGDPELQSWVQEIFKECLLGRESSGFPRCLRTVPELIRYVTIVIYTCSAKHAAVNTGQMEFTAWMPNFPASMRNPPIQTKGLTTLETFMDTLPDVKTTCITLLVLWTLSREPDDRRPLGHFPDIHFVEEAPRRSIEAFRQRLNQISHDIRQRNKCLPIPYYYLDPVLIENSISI
Description: Human 12R-LOX gene was cloned and expressed as an N-terminally His-tagged fusion protein. Coding region of the cDNA was amplified from the basic vector pCMV6Neo-12R-LOX (OriGene, USA) and was ligated into pET28(b), a prokaryotic protein expression vector. E. coli BL21 Rossetta DE3 (an engineered strain of BL21) was transformed with the pET28(b) recombinant vector containing Kanamycin and chloramphenicol resistance gene as the selection markers. Single colony selected on kanamycin and chloramphenicol was checked for the expression of the protein. For this single colony was cultured at 37° C. in LB medium containing […] kanamycin and […] chloramphenicol to reach an absorbance of 0.6 at 600 nm. The cultured bacteria were then induced to express recombinant protein by using isopropyl β-D-thiogalactopyranoside (IPTG) (1 mM final concentration) at 18° C. The culture was incubated for 8-12 h and then the culture was spun down to collect the bacterial cells. The cells were re-suspended in the required amount of phosphate buffer saline (PBS) containing protease inhibitor. The cells were then lysed by sonication to extract the protein. The cells were sonicated for 5 min. and then debris was removed by centrifugation at 13000 rpm for 30 min at 4° C. The clear supernatant was collected and was used as the source of enzyme.
Purification of the recombinant 12R-LOX protein was performed using nickel-nitrilotriacetic acid (Ni-NTA) metal-affinity chromatography as per manufacturer's protocol. Briefly, Ni-NTA slurry (500 microliters for 150 mL of culture) was added to the cleared bacterial lysate and mixed gently by shaking at 4° C. for 60 min. Then the lysate—Ni-NTA slurry was loaded into a column. The column was then washed with 10 mL of washing buffer (50 mM phosphate buffer with 300 mM sodium chloride) containing 20 mM imidazole to remove loosely bound proteins. Then tightly bound proteins were eluted from the column with elution buffer (50 mM phosphate buffer with 300 mM sodium chloride) containing 300 mM imidazole. The purified protein fractions were then analyzed further by SDS-PAGE and western blotting to confirm the presence of 12R-LOX (FIGS. 1a and 1b).
Fractions with human 12R-LOX protein were added to a total volume of 0.3 mL of phosphate buffered saline (pH 7.4) and incubated with substrate, arachidonic acid methyl ester. The mixture was vortexed and incubated for 15 min at 37° C. […] After 5 min the reaction was acidified to pH 3 with 50 μL of acetic acid and then the proteins were precipitated with the addition of 0.3 mL of ice-cold methanol. The total mixture was centrifuged (14000 rpm for 15 min) to remove the proteins and the clear supernatant was analysed on reverse phase HPLC (RP-HPLC). The solvent system used was methanol:water:acetic acid in the ratio of 85:15:0.1 with a flow rate of 1 mL/min on a C18 column. The chromatograms were followed by monitoring the absorbance for HETE products at 235 nm. Individual peak areas in each chromatogram were taken for further comparison analysis.
Baicalein, the standard 12R-LOX inhibitor, was used as a positive control for all inhibition assays performed. The compounds were evaluated for their inhibitory action against human 12R-LOX enzyme at 100 μM concentration in vitro. Further, IC50 of the compounds of the present invention were determined.

[2] = 12R-LOX inhibitory activities in vitro
[3] = 12R-LOX inhibitory activities in vitro, 100 μM concentration

| SMILES | melting point [°C] | IC50 [1, 2] [µM] | inhibition at 100 µM [1, 3] [%] | inhibition at 100 µM [1] [%] |
| --- | --- | --- | --- | --- |
| Nc1ccc(O)cc1-c1cc(=O)c2ccccc2o1 [Compound 1, 2-(2-Amino-5-hydroxyphenyl)-4H-chromen-4-one] | 202 to 204 | 188 | 40 | – |
| CS(=O)(=O)Nc1ccc(OS(C)(=O)=O)cc1-c1cc(=O)c2ccccc2o1 [Compound 2, 4-(Methylsulfonamido)-3-(4-oxo-4H-chromen-2-yl)phenylmethane Sulfonate] | – | – | 56 | – |
| Nc1cc(I)c(O)cc1-c1cc(=O)c2ccccc2o1 [Compound 3, 2-(2-Amino-5-hydroxy-4-iodophenyl)-4H-chromen-4-one] | – | 97 | 51 | – |
| COc1ccc(N)c(-c2cc(=O)c3ccccc3o2)c1 [Compound 4, 2-(2-Amino-5-methoxyphenyl)-4H-chromen-4-one] | 118 to 120 | – | – | – |
| CCOc1ccc(N)c(-c2cc(=O)c3ccccc3o2)c1 [Compound 5, 2-(2-Amino-5-ethoxyphenyl)-4H-chromen-4-one] | 88 to 90 | – | – | – |
| C#CCOc1ccc(N)c(-c2cc(=O)c3ccccc3o2)c1 [Compound 6, 2-(2-Amino-5-(prop-2-ynyloxy)phenyl)-4H-chromen-4-one] | 153 to 155 | – | – | – |
| C#CCOc1ccc(NS(=O)(=O)c2ccccc2)c(-c2cc(=O)c3ccccc3o2)c1 [Compound 7, N-(2-(4-Oxo-4H-chromen-2-yl)-4-(prop-2-ynyloxy)phenyl)benzene sulfonamide] | 152 to 154 | – | – | 21 ± 7 |
| O=c1cc(-c2cc(O)ccc2NS(=O)(=O)c2ccccc2)oc2ccccc12 [Compound 8, N-(4-Hydroxy-2-(4-oxo-4H-chromen-2-yl)phenyl)benzene Sulfonamide] | > 200 | – | – | – |
| C#CCOc1ccc(NC(=O)c2ccccc2)c(-c2cc(=O)c3ccccc3o2)c1 [Compound 11, N-(2-(4-Oxo-4H-chromen-2-yl)-4-(prop-2-ynyloxy)phenyl) benzamide] | 154 to 156 | – | – | – |
| O=C(Nc1ccc(O)cc1-c1cc(=O)c2ccccc2o1)c1ccccc1 [Compound 12, N-(4-Hydroxy-2-(4-oxo-4H-chromen-2-yl)phenyl)benzamide] | > 200 | – | – | – |
| Nc1ccc(O)cc1-c1cc(=O)c2ccc(F)cc2o1 [Compound 13, 2-(2-Amino-5-hydroxyphenyl)-7-fluoro-4H-chromen-4-one] | 200 to 202 | – | 21 ± 8.4 | – |
| Nc1ccc(O)cc1-c1cc(=O)c2cc(Br)ccc2o1 [Compound 14, 2-(2-Amino-5-hydroxyphenyl)-6-bromo-4H-chromen-4-one] | > 200 | – | 6.95 ± 1.6 | – |
| O=c1cc(-c2cc(O)ccc2NS(=O)(=O)c2ccc([N+](=O)[O-])cc2)oc2ccccc12 [Compound 15, N-(4-Hydroxy-2-(4-oxo-4H-chromen-2-yl)phenyl)-4-nitrobenzenesulfonamide] | > 200 | – | 6.33 ± 5.9 | – |
| Nc1ccc(O)cc1-c1cc(=O)c2cc(O)ccc2o1 [Compound 16, 2-(2-Amino-5-hydroxyphenyl)-6-hydroxy-4H-chromen-4-one] | 130 to 132 | – | 38.3 ± 3.8 | – |
| O=c1cc(-c2cc(O)ccc2NS(=O)(=O)c2ccc(C(F)(F)F)cc2)oc2ccccc12 [Compound 17, N-(4-Hydroxy-2-(4-oxo-4H-chromen-2-yl)phenyl)-4-(trifluoromethyl)benzenesulfonamide] | 160 to 162 | – | 30 ± 5 | – |
| Nc1ccc(O)cc1-c1cc(=O)c2ccc(Br)cc2o1 [Compound 18, 2-(2-Amino-5-hydroxyphenyl)-7-bromo-4H-chromen-4-one] | > 200 | 98.1 | 53.5 ± 4.2 | – |
